Data as given in patent US10765114B2, “4-amino-6-(pyridyl and 2-substitutedphenyl)-picolinates and 6-amino-2-(pyridyl and 2-substitutedphenyl)-pyrimidine-4-carboxylates and their use as herbicides” (Dow AgroSciences LLC, priority 2013, dated 2020).
Like-named read-outs stand apart in the source and are kept apart here.

Experiments:
[1] = test system: Key Broadleaf Weed and Crop Species; experiment: Post-Emergent Test II (Table 5); assay type: in vivo; conditions: post-emergence, 336 h, given as numbers; for pest or weed control at 70 g/ha: application rate 70 (kg ai/ha; footnote: g ai/ha); for pest or weed control at 140 g/ha: application rate 140 (kg ai/ha; footnote: g ai/ha)
Procedure: (§1) Seeds or nutlets of the desired test plant species were planted in Sun Gro Metro-Mix® 360 planting mixture, which typically has a pH of 6.0 to 6.8 and an organic matter content of about 30 percent, in plastic pots with a surface area of 64 square centimeters. When required to ensure good germination and healthy plants, a fungicide treatment and/or other chemical or physical treatment was applied. The plants were grown for 7-21 days in a greenhouse with an approximate 15 h photoperiod which was maintained at about 23-29° C. during the day and 22-28° C. during the night. Nutrients and water were added on a regular basis and supplemental lighting was provided with overhead metal halide 1000-Watt lamps as necessary. The plants were employed for testing when they reached the first or second true leaf stage.
(§2) A weighed amount, determined by the highest rate to be tested, of each test compound was placed in a 25 mL glass vial and was dissolved in 4 mL of a 97:3 v/v mixture of acetone and DMSO to obtain concentrated stock solutions. […] The concentrated stock solutions obtained were diluted with 20 mL of an aqueous mixture containing acetone, water, isopropyl alcohol, DMSO, Atplus 411F crop oil concentrate, and Triton® X-155 surfactant in a 48.5:39:10:1.5:1.0:0.02 v/v ratio to obtain spray solutions containing the highest application rates. Additional application rates were obtained by serial dilution of 12 mL of the high rate solution into a solution containing 2 mL of 97:3 v/v mixture of acetone and DMSO and 10 mL of an aqueous mixture containing acetone, water, isopropyl alcohol, DMSO, Atplus 411F crop oil concentrate, and Triton X-155 surfactant in a 48.5:39:10:1.5:1.0:0.02 v/v ratio to obtain ½×, ¼×, ⅛× and 1/16× rates of the high rate. Compound requirements are based upon a 12 mL application volume at a rate of 187 liters per hectare (L/ha). Formulated compounds were applied to the plant material with an overhead Mandel track sprayer equipped with 8002E nozzles calibrated to deliver 187 L/ha over an application area of 0.503 square meters at a spray height of 18 inches (43 cm) above the average plant canopy height. Control plants were sprayed in the same manner with the solvent blank.
(§3) The treated plants and control plants were placed in a greenhouse as described above and watered by subirrigation to prevent wash-off of the test compounds. After 14 days, the condition of the test plants as compared with that of the untreated plants was determined visually and scored on a scale of 0 to 100 percent where 0 corresponds to no injury and 100 corresponds to complete kill and presented as indicated in Table A. Some of the compounds tested, application rates employed, plant species tested, and results are given in Table 5.

[2] = test system: Key Grass and Sedge Weeds as well as Grass Crops; experiment: Post-Emergent Test II (Table 6); assay type: in vivo; conditions: given as numbers; for Visual Growth Reduction (%) 14 Days After Application, CYPSS: CYPSS (CYPES: yellow nutsedge, Cyperus esculentus); for Visual Growth Reduction (%) 14 Days After Application, DIGSA: DIGSA: crabgrass (Digitaria sanguinalis); for Visual Growth Reduction (%) 14 Days After Application, ECHSS: ECHSS (ECHCG: barnyardgrass, Echinochloa crus-galli); for Visual Growth Reduction (%) 14 Days After Application, ORYSS: ORYSS (ORYSA: rice, Oryza sativa); for Visual Growth Reduction (%) 14 Days After Application, ORYSS / Visual Growth Reduction (%) 14 Days After Application, TRZSS / Visual Growth Reduction (%) 14 Days After Application, ZEAMX: crop; for Visual Growth Reduction (%) 14 Days After Application, SETFA: SETFA: giant foxtail (Setaria faberi); for Visual Growth Reduction (%) 14 Days After Application, SORVU: SORVU: johnsongrass (Sorghum vulgare); for Visual Growth Reduction (%) 14 Days After Application, TRZSS: TRZSS (TRZAS: wheat, spring, Triticum aestivum); for Visual Growth Reduction (%) 14 Days After Application, ZEAMX: ZEAMX: maize, corn (Zea mays)
Procedure: as §1, §2, §3

[3] = Abutilon theophrasti, ABUTH: velvetleaf (Abutilon theophrasti), read-out: Visual Growth Reduction (%) 14 Days After Application ABUTH
[4] = Amaranthus retroflexus, AMARE: redroot pigweed (Amaranthus retroflexus), read-out: Visual Growth Reduction (%) 14 Days After Application AMARE
[5] = Brassica napus, BRSSS: oilseed rape, canola (Brassica napus), read-out: Visual Growth Reduction (%) 14 Days After Application BRSSS
[6] = Chenopodium album, CHEAL: lambsquarters (Chenopodium album), read-out: Visual Growth Reduction (%) 14 Days After Application CHEAL
[7] = Euphorbia heterophylla, EPHHL: wild poinsettia (Euphorbia heterophylla), read-out: Visual Growth Reduction (%) 14 Days After Application EPHHL
[8] = Helianthus annuus, HELAN: sunflower (Helianthus annuus), read-out: Visual Growth Reduction (%) 14 Days After Application HELAN
[9] = Viola tricolor, VIOTR: wild pansy (Viola tricolor), read-out: Visual Growth Reduction (%) 14 Days After Application VIOTR

| Structure (SMILES) | pest or weed control at 70 g/ha [1, 3] | pest or weed control at 140 g/ha [1, 3] | pest or weed control at 70 g/ha [1, 4] | pest or weed control at 140 g/ha [1, 4] | pest or weed control at 70 g/ha [1, 5] | pest or weed control at 140 g/ha [1, 5] | pest or weed control at 70 g/ha [1, 6] | pest or weed control at 140 g/ha [1, 6] | pest or weed control at 70 g/ha [1, 7] | pest or weed control at 140 g/ha [1, 7] | pest or weed control at 70 g/ha [1, 8] | pest or weed control at 140 g/ha [1, 8] | pest or weed control at 70 g/ha [1, 9] | pest or weed control at 140 g/ha [1, 9] | Visual Growth Reduction (%) 14 Days After Application, CYPSS ([2]; 70 g ai/ha) | Visual Growth Reduction (%) 14 Days After Application, CYPSS ([2]; 140 g ai/ha) | Visual Growth Reduction (%) 14 Days After Application, DIGSA ([2]; 70 g ai/ha) | Visual Growth Reduction (%) 14 Days After Application, DIGSA ([2]; 140 g ai/ha) | Visual Growth Reduction (%) 14 Days After Application, ECHSS ([2]; 70 g ai/ha) | Visual Growth Reduction (%) 14 Days After Application, ECHSS ([2]; 140 g ai/ha) | other results |
| --- | --- | --- | --- | --- | --- | --- | --- | --- | --- | --- | --- | --- | --- | --- | --- | --- | --- | --- | --- | --- | --- |
| C=Cc1c(N)nc(-c2ccc(C(F)(F)F)nc2)nc1C(=O)O [Compound 102] | 15% | 15% | 85% | 100% | 20% | 35% | 80% | 75% | 85% | 100% | 65% | 75% | 35% | 80% | 10% | 35% | 0% | 0% | 30% | 70% | Visual Growth Reduction (%) 14 Days After Application, ORYSS ([2]; 70 g ai/ha): 0%; Visual Growth Reduction (%) 14 Days After Application, ORYSS ([2]; 140 g ai/ha): 0%; Visual Growth Reduction (%) 14 Days After Application, SETFA ([2]; 70 g ai/ha): 0%; Visual Growth Reduction (%) 14 Days After Application, SETFA ([2]; 140 g ai/ha): 0%; Visual Growth Reduction (%) 14 Days After Application, SORVU ([2]; 70 g ai/ha): 0%; Visual Growth Reduction (%) 14 Days After Application, SORVU ([2]; 140 g ai/ha): 0%; Visual Growth Reduction (%) 14 Days After Application, TRZSS ([2]; 70 g ai/ha): 0%; Visual Growth Reduction (%) 14 Days After Application, TRZSS ([2]; 140 g ai/ha): 10%; Visual Growth Reduction (%) 14 Days After Application, ZEAMX ([2]; 70 g ai/ha): 0%; Visual Growth Reduction (%) 14 Days After Application, ZEAMX ([2]; 140 g ai/ha): 0% |
| C=Cc1c(C(=O)O)nc(-c2ccc(C(F)(F)F)nc2)c(F)c1N [Compound 101] | 85% | 85% | 100% | 100% | 70% | 80% | 100% | 98% | 98% | 100% | 80% | 85% | 75% | 80% | 80% | 80% | 0% | 10% | 80% | 60% | Visual Growth Reduction (%) 14 Days After Application, ORYSS ([2]; 70 g ai/ha): 40%; Visual Growth Reduction (%) 14 Days After Application, ORYSS ([2]; 140 g ai/ha): 95%; Visual Growth Reduction (%) 14 Days After Application, SETFA ([2]; 70 g ai/ha): 20%; Visual Growth Reduction (%) 14 Days After Application, SETFA ([2]; 140 g ai/ha): 40%; Visual Growth Reduction (%) 14 Days After Application, SORVU ([2]; 70 g ai/ha): 45%; Visual Growth Reduction (%) 14 Days After Application, SORVU ([2]; 140 g ai/ha): 75%; Visual Growth Reduction (%) 14 Days After Application, TRZSS ([2]; 70 g ai/ha): 10%; Visual Growth Reduction (%) 14 Days After Application, TRZSS ([2]; 140 g ai/ha): 40%; Visual Growth Reduction (%) 14 Days After Application, ZEAMX ([2]; 70 g ai/ha): 0%; Visual Growth Reduction (%) 14 Days After Application, ZEAMX ([2]; 140 g ai/ha): 25% |
